{
  "source": "patent US7897637B2",
  "about": "“Methods of using flavonoids to enhance memory” (The Salk Institute for Biological Studies, priority 2006, dated 2011)",
  "key": {"GSH": {"system": "GSH", "experiment": "Total cellular GSH levels in HT22 cells", "format": "cell-based, mouse", "settings": "8 hours", "method": "The effects of fisetin derivatives on cellular GSH levels was then determined. HT22 cells were untreated (Ct) or treated with 10 μM fisetin, 25 μM 3,3′-DHF, 25 μM 3,4′-DHF, 2.5 μM 3′,4′-DHF, 2.5 μM 3,3′,4′-THF, 25 μM 3,7,3′-THF, 25 μM 3,7,4′-THF or 10 μM 7,3′,4′-THF alone or in the presence of 5 mM glutamate. After 8 hours cellular levels of total GSH were determined as described in Example 4. The GSH level of the control sample (31.5±10 nmoles/mg protein) was taken as 100%.\nTotal intracellular GSH/GSSG was determined using whole cell lysates from untreated, glutamate treated, flavonoid treated and glutamate plus flavonoid treated cells as described (Maher and Hanneken, Invest. Opthalmol. Vis. Sci., 46:749-57, 2005, herein incorporated by reference as to the method) and normalized to total cellular protein."}, "PC12 cells": {"system": "PC12 cells", "experiment": "PC12 cell differentiation assay (neurite outgrowth)", "format": "cell-based", "settings": "Rattus norvegicus, PC-12, PC12 cells in N2 medium, 24 hours, neurites scored", "method": "Four trihydroxyflavones (THF) and three dihydroxyflavones (DHF) which lack one or two, respectively, of the hydroxyl groups found in fisetin were tested for their ability to induce the differentiation of PC12 cells. Differentiation was assessed by scoring neurite outgrowth (Sagara et al., J. Neurochem., 90:1144-1155, 2004). […]\nPC12 cells in N2 medium were treated with flavonoids for 24 hours at which time the cells were scored for the presence of neurites. PC12 cells produce neurites much more rapidly when treated in N2 medium than when treated in regular growth medium (Kimura et al., J. Cell Biol., 116:777-83, 1992). For each treatment, 100 cells in each of three separate fields were counted. Cells were scored positive if one or more neurites>1 cell body diameter in length were observed."}, "HT22 cells": {"system": "HT22 cells", "experiment": "Protection of HT22 cells from oxidative glutamate toxicity (MTT assay)", "format": "cell-based, mouse", "description": "Fisetin is effective at protecting nerve cells from oxidative stress-induced death (Ishige et al., Free Radic. Biol. Med., 30:433-446, 2001). This Example illustrates the structure-activity relationship between fisetin derivatives and neuroprotection in a model of oxidative glutamate toxicity using mouse HT22 cells. This pathway of programmed cell death is initiated by the addition of glutamate to the extracellular medium. Glutamate inhibits the uptake of cystine which is required for glutathione (GSH) biosynthesis, resulting in the depletion of GSH in neurons (for review see Tan et al., Curr. Top. Med. Chem., 1:497-506, 2001). Subsequently, this decrease in cellular GSH results in the production of reactive oxygen species (ROS) by mitochondria. The ROS accumulation then causes Ca^+2 influx from the extracellular medium which leads to cell death.\nHT22 cells were untreated (Ct) or treated with 10 μM fisetin, 25 μM 3,3′-DHF, 25 μM 3,4′-DHF, 2.5 μM 3′,4′-DHF, 2.5 μM 3,3′,4′-THF 25 μM 3,7,3′-THF, 25 μM 3,7,4′-THF or 10 μM 7,3′,4′-THF in the presence of 5 mM glutamate±50 μM PD98059. Twenty four (24) hours later cell survival was measured by the MTT assay.\nHT22 cells were untreated (Ct) or treated with 10 μM fisetin, 25 μM 3,3′-DHF. […] Protection by all of the other flavonoids was unaffected by BSO.\nCell viability was determined by a modified version of the 3-(4,5-dimethylthiazol-2-yl)-2,5-diphenyl tetrazolium bromide (MTT) assay based on the standard procedure (Hansen et al., J. Immunol. Meth., 119:203-10, 1989). Briefly, cells were seeded onto 96-well microtiter plates at a density of 5×10^3 cells per well. The next day, the medium was replaced with DMEM supplemented with 7.5% DFCS and the cells were treated with the different flavonoids alone or in the presence of 5 mM glutamate. Twenty four hours later, the medium in each well was aspirated and replaced with fresh medium containing 2.5 μg/ml MTT. After 4 hours of incubation at 37° C., cells were solubilized with 100 μl of a solution containing 50% dimethylformamide and 20% SDS (pH 4.7). The absorbance at 570 nm was measured on the following day with a microplate reader (Molecular Devices). Results obtained from the MTT assay correlated directly with the extent of cell death as confirmed visually. Controls employing wells without cells were used to determine the effects of the agents upon the assay chemistry."}, "[1]": {"experiment": "Trolox Equivalent Activity Concentration (ABTS decolorization assay)", "settings": "Trolox as reference", "method": "To determine if the protection seen with the different fisetin derivatives correlated with their antioxidant properties, their Trolox Equivalent Activity Concentration (TEAC) values were determined. In this procedure, a compound is compared to Trolox, a water-soluble vitamin E analog, for its ability to reduce the radical cation of ABTS in aqueous solution. As reported previously, fisetin has a TEAC value of ˜3 (Table II). None of the derivatives had TEAC values in this range despite, in some cases, showing better protection against oxidative stress-induced death. Thus, there was no correlation with antioxidant activity as defined by TEAC value and protection in this system.\nTEAC values for the flavonoids were determined according to (Re et al. Free Rad. Biol. Med., 26:1231-7, 1999) but modified for a plate reader. Briefly, 250 μl of 2,2′-azinobis(3-ethylbenzothiazoline 6-sulfonate)(ABTS) treated overnight with potassium persulfate and diluted to an OD of ˜0.7 at 734 nm was added to 2.5 μl of a flavonoid solution in ethanol. The change in absorbance due to the reduction of the ABTS radical cation was measured at 734 nm for 4 minutes. To calculate the TEAC, the gradient of the plot of the percentage inhibition of absorbance vs. concentration for the flavonoid in question is divided by the gradient of the plot for Trolox."}, "ERK": {"system": "ERK", "settings": "Vanhoutte et al. 1999; English & Sweatt 1997; cited from earlier work"}, "Male C57Bl/6J mice": {"system": "Male C57Bl/6J mice", "experiment": "Object recognition task", "format": "in vivo", "settings": "oral, dose not given; vs vehicle", "method": "The effect of fisetin, 3,3′,4′-THF, and apigenin (5,7,4′-THF) on memory was tested in mice using an object recognition task (Ennaceur and Delacour, Behav. Brain Res., 31:47-59, 1988). Among the alternatives available for testing memory, this assay has proven very effective for measuring CREB-dependent functions (Prickaerts et al., Neurosci., 113:351-61, 2002; Bourtchouladze et al., Proc. Natl. Acad. Sci. USA, 100:10518-22, 2003). In this test, mice are presented with two identical objects during the training period which they explore for a fixed time period. To test for memory, mice are presented one day later with two different objects, one of which was presented previously during the training and is thus familiar to the mice, and the other that is novel. The better a mouse remembers the familiar object, the more time it will spend exploring the novel object. To test the effects of fisetin, 3,3′,4′-THF, or apigenin (5,7,4′-THF) in this memory task, the respective compound was administered orally to the mice before the start of the training period. Rolipram, a phosphodiesterase inhibitor that potentiates memory in this assay (Bourtchouladze et al., Proc. Natl. Acad. Sci. USA, 100:10518-22, 2003), requires intraperitoneal injection and was used as a positive control.\nMale C57Bl/6J mice (Jackson Laboratories) were used and the testing was done by PsychoGenics (Tarrytown, N.Y.). All mice were acclimated to the colony room for at least 2 weeks prior to testing and were tested at an average age of 8 weeks. Mice were randomly assigned across treatment groups with 10 mice in each group. For each dose tested, a 10× solution of fisetin was prepared in 95% ethanol and then diluted with 4 volumes polyethylene glycol 660 hydroxystearate (Solut HS15 from BASF) and 5 volumes phosphate buffered saline. The vehicle was contained the identical ratios of ethanol, Solut HS15 and phosphate buffered saline. All were administered orally 60 minutes prior to training at a volume of 10 ml/kg body weight. Rolipram was dissolved in 10% DMSO and administered intraperitoneally 20 minutes prior to training. The test was performed as previously described by Bourtchouladze et al. (Proc. Natl. Acad. Sci. USA, 100:10518-22, 2003). Briefly, on Day 1 mice were habituated to a circular open field arena for one hour in cage groups of four. Twenty-four (24) hours later, individual mice were placed back in the same arena which now contained two identical objects for a 15 minutes training trial. […] Each animal's test trial was recorded and the first 10 minutes of each session were scored. […] Data were analyzed by a one-way ANOVA followed by post-hoc comparisons with Fisher's test. […]"}, "cAMP": {"system": "cAMP", "experiment": "cAMP levels in hippocampal slices (Scintillation Proximity Assay)", "format": "cell-based", "method": "Hippocampal slices were treated with fisetin using the conditions where maximal stimulation of CREB phosphorylation and facilitation of LTP were observed. Briefly, hippocampal slices in ACSF were treated with 1 μM fisetin for 5 minutes (fisetin) or 3 μM rolipram for 30 minutes (rolipram) and then either immediately frozen or treated with […] forskolin for an additional 15 minutes (rolipram+forskolin; fisetin+forskolin) prior to freezing. Additional slices were treated only with 5 μM forskolin for 15 minutes (forskolin). Forskolin, an activator of adenylyl cyclase, and rolipram were used as positive controls. The levels of cAMP in the slices were measured using a Scintillation Proximity Assay and presented as pmole/mg protein±S.D."}},
  "data": [
    {"smiles": "O=c1cc(-c2ccc(O)c(O)c2)oc2cc(O)ccc12", "note": "[7,3′,4′-THF, 3′,4′,7-trihydroxyflavone]", "values": [
      {"measurement": "GSH levels in the presence of oxidative stress", "setting": "GSH; 5 mM glutamate", "value": "could not maintain GSH levels"},
      {"measurement": "basal levels of GSH", "setting": "GSH; flavonoid alone", "value": "raised the basal levels of GSH"},
      {"measurement": "EC50", "setting": "PC12 cells; read-out: EC50 (μM), induction of PC12 cell differentiation", "value": 10, "unit": "µM"},
      {"measurement": "Emax", "setting": "PC12 cells; read-out: Maximal Efficacy, induction of PC12 cell differentiation", "value": "50 to 60", "unit": "%"},
      {"measurement": "effect of higher levels of BSO on protection", "setting": "HT22 cells; 5 mM glutamate + 1 mM BSO, 24 hours, MTT", "value": "reduced protection"},
      {"measurement": "protection from oxidative stress-induced death", "setting": "HT22 cells; HT22 cells, glutamate", "value": "equal to or more effective than fisetin"},
      {"measurement": "EC50", "setting": "HT22 cells; Mus musculus, HT-22, 24 h, HT22 cells, 5 mM glutamate, 24 hours, MTT assay, read-out: EC50 (μM), protection from oxidative-stress induced death", "value": 5, "unit": "µM"},
      {"measurement": "Emax", "setting": "HT22 cells; Mus musculus, HT-22, HT22 cells, 5 mM glutamate, 24 hours, MTT assay, read-out: Maximal Efficacy, protection from oxidative-stress induced death", "value": "> 80", "unit": "%"},
      {"measurement": "TEAC", "setting": "[1]", "value": "0.89 ± 0.04"}
    ]},
    {"smiles": "CN[C@H](CC(=O)O)C(=O)O", "note": "[NMDA]", "values": [
      {"measurement": "increase in ERK phosphorylation reported following treatment of slices", "setting": "ERK", "value": "~2.5", "unit": "fold"}
    ]},
    {"smiles": "O=c1cc(-c2ccc(O)cc2)oc2cc(O)cc(O)c12", "note": "[apigenin, reference compound]", "values": [
      {"measurement": "object recognition", "setting": "Male C57Bl/6J mice", "value": "did not exhibit significantly better object recognition"}
    ]},
    {"smiles": "COc1ccc(C2CNC(=O)C2)cc1OC1CCCC1", "note": "(stereo not shown) [rolipram, reference compound]", "values": [
      {"measurement": "effect on cAMP levels by itself", "setting": "cAMP; 1 μM fisetin 5 minutes, 3 μM rolipram 30 minutes", "value": "modestly increased"},
      {"measurement": "potentiation of the effect of forskolin on cAMP levels", "setting": "cAMP; then 5 μM forskolin for 15 minutes", "value": "significantly potentiated"}
    ]}
  ]
}
